According to ChEMBL document CHEMBL6096699, “Tröger's Base as a Potential Bridge to Type-I Photosensitizers: Mechanism and Antitumor Applications” (J Med Chem, 2025):
Active and inactive are the calls of the source. No cut-off for these calls is given here.

Key:
[1] = Developmental toxicity in wild type AB zebrafish assessed as effect on heart at 50 uM incubated for 72 hrs under dark condition; set-up: species or system Danio rerio; conditions: in vivo
A549 [2] = test: Induction of intracellular ROS generation in human A549 cells by measuring red fluorescence at 0.4 to 1.2 uM incubated for 24 hrs in presence of LED light irradiation at 1.8 mW cm/2 by DHE based fluorescence microscopy analysis; format: functional, cell-based; conditions: dose 0.4-1.2 µM
[3] = Photophysical property of the compound assessed as fluorescence quantum yield; format: physicochemical
[4] = Induction of type-1 ROS generation in tetrahydrofuran assessed as fold increase in DHR123 fluorescence intensity at 0.5 uM followed by LED white light irradiation at 1.8 mWcm/2 for 300 sec by DCFH staining based analysis; format: functional
A549 [5] = test: Inhibition of cell migration in human A549 cells assessed as appearance of loose cells at 0.25 uM preincubated for 12 hrs followed by incubation under dark condition and measured after 48 hrs by wound healing assay; format: functional, cell-based; conditions: time 60.0 hrs
[6] = Dark toxicity in human HBE cells assessed as cell viability incubated for 24 hrs in dark by MTT assay; format: cell-based
[7] = Phototoxicity against human A549 cells assessed as reduction in cell proliferation irradiated with LED light at 1.8 mWcm/2 for 2 hrs and measured after 24 hrs under normoxia condition by MTT assay; format: functional, cell-based; conditions: A549, light or radiation study
[8] = Developmental toxicity in wild type AB zebrafish assessed as survival rate at 50 uM incubated for 72 hrs under condition relative to control; set-up: species or system Danio rerio; conditions: in vivo
A549 [9] = test: Antitumor activity in human A549 cells xenografted in Ab wild type Zebrafish embryos assessed as decrease in tumor growth by measuring fluorescence intensity at 2.9 to 5.8 ng preincubated for 12 hrs followed by irradiation of LED light of 1.8 mW cm/2 for 2 hrs and measured after 48 to 72 hrs; format: functional, cell-based; conditions: dose 2.9-5.8 ng, time 62-86 hrs
A549 [10] = test: Inhibition of cell migration in human A549 cells at 0.25 uM preincubated for 12 hrs followed by LED light irradiation 1.8 mW cm/2 for 2 hrs and measured after 48 hrs by wound healing assay; format: functional, cell-based; conditions: time 62.0 hrs
A549 [11] = test: Inhibition of cell migration in human A549 cells assessed as appearance of blurred cells at 0.25 uM preincubated for 12 hrs followed by incubation under dark condition and measured after 48 hrs by wound healing assay; format: functional, cell-based; conditions: time 60.0 hrs
[12] = Developmental toxicity in wild type AB zebrafish assessed as effect on morphological abnormalities at 1.57 to 50 uM incubated for 72 hrs under dark condition; set-up: species or system Danio rerio; conditions: in vivo, dose 1.57-50 µM
[13] = Developmental toxicity in wild type AB zebrafish assessed as hatching rate at 50 uM incubated for 72 hrs under dark condition; set-up: species or system Danio rerio; conditions: in vivo
A549 [14] = test: Inhibition of cell migration in human A549 cells assessed as appearance of loose cells at 0.25 uM preincubated for 12 hrs followed by LED light irradiation 1.8 mW cm/2 for 2 hrs and measured after 48 hrs by wound healing assay; format: functional, cell-based; conditions: time 62.0 hrs
[15] = molecular target: T1, c-Jun N-terminal kinase, JNK (Homo sapiens) (UniProt P45983+P53779+P45984); test: Activation of JNK pathway in human A549 cells assessed as effect on JNK protein expression at 2.5 to 5 uM by Western blot analysis; format: cell-based; conditions: filed as activator, dose 2.5-5 µM
A549 [16] = test: Induction of intracellular ROS generation in human A549 cells by measuring red fluorescence at 0.4 to 1.2 uM incubated for 24 hrs under dark condition by DHE based fluorescence microscopy analysis; format: functional, cell-based; conditions: dose 0.4-1.2 µM
MDA-MB-231 = test: Phototoxicity against human MDA-MB-231 cells assessed as reduction in cell proliferation at 0.156 to 10 uM irradiated with LED light at 1.8 mWcm/2 for 2 hrs and measured after 24 hrs under normoxia condition by MTT assay; format: functional, cell-based; conditions: dose 0.156-10 µM, time 26.0 hrs
[17] = molecular target: Signal transducer and activator of transcription 3 (Homo sapiens) (UniProt P40763); test: Inhibition of STAT3 pathway in human A549 cells assessed as decrease in STAT3 protein expression at 2.5 to 5 uM by Western blot analysis; format: cell-based; conditions: dose 2.5-5 µM
Mitochondrial membrane [18] = test: Induction of mitochondrial membrane potential loss in human A549 cells assessed as increase in green fluorescence of JC-1 monomers at 0.4 to 1.2 uM incubated for 24 hrs with irradiation of LED light at 1.8 mW cm/2 by light microscopy analysis; format: cell membranes; conditions: dose 0.4-1.2 µM
A549 [19] = test: Inhibition of cell migration in human A549 cells at 0.25 uM preincubated for 12 hrs followed by incubation under dark condition and measured after 48 hrs by wound healing assay; format: functional, cell-based; conditions: time 60.0 hrs
A549 [20] = test: Induction of apoptosis in human A549 cells assessed as upregulation of cleaved caspase-3 expression at 2.5 to 5 uM with irradiation of LED light at 1.8 mW cm/2 by Western blot analysis; format: functional, cell-based; conditions: dose 2.5-5 µM
A549 [21] = test: Inhibition of cell migration in human A549 cells assessed as appearance of blurred cells at 0.25 uM preincubated for 12 hrs followed by LED light irradiation 1.8 mW cm/2 for 2 hrs and measured after 48 hrs by wound healing assay; format: functional, cell-based; conditions: time 62.0 hrs
A549 [22] = test: Induction of apoptosis in human A549 cells assessed as downregulation of Bcl-2 expression at 2.5 to 5 uM with irradiation of LED light at 1.8 mW cm/2 by Western blot analysis; format: functional, cell-based; conditions: dose 2.5-5 µM
HepG2 = test: Phototoxicity against human HepG2 cells assessed as reduction in cell proliferation at 0.156 to 10 uM irradiated with LED light at 1.8 mWcm/2 for 2 hrs and measured after 24 hrs under normoxia condition by MTT assay; format: functional, cell-based; conditions: dose 0.156-10 µM, time 26.0 hrs
A549 [23] = test: Activation of ERK1/2 pathway in human A549 cells assessed as increase in ERK phosphorylation level at 2.5 to 5 uM by Western blot analysis; format: cell-based; conditions: filed as activator, dose 2.5-5 µM
[24] = Induction of type-2 ROS generation in methanol assessed as generation of single oxygen at 0.5 uM followed by Xe lamp irradiation for 5 mins by DCFH staining based analysis; format: functional
[25] = Developmental toxicity in wild type AB zebrafish assessed as hatching rate at 50 uM incubated for 72 hrs followed by LED light irradiation at 1.8 mW cm/2 relative to control; set-up: species or system Danio rerio; conditions: in vivo
[26] = Drug localization in ER of human A549 cells assessed as colocalization by ER-Tracker green staining based analysis; format: ADME, subcellular, Endoplasmic reticulum
Mitochondrial membrane [27] = test: Induction of mitochondrial membrane potential loss in human A549 cells assessed as decrease in red fluorescence of JC-1 aggregates at 0.4 to 1.2 uM incubated for 24 hrs with irradiation of LED light at 1.8 mW cm/2 by light microscopy analysis; format: cell membranes; conditions: dose 0.4-1.2 µM
[28] = molecular target: T1, c-Jun N-terminal kinase, JNK (Homo sapiens); test: Activation of JNK pathway in human A549 cells assessed as increase in JNK phosphorylation level at 2.5 to 5 uM by Western blot analysis; format: cell-based; conditions: filed as activator, dose 2.5-5 µM
A549 [29] = test: Activation of MAPK pathway in human A549 cells assessed as effect on MAPK protein expression at 2.5 to 5 uM by Western blot analysis; format: cell-based; conditions: filed as activator, dose 2.5-5 µM
[30] = Drug localization in mitochondria of human A549 cells assessed as colocalization by Mitotracker res staining based analysis; format: ADME
[31] = molecular target: Signal transducer and activator of transcription 3 (Homo sapiens) (UniProt P40763); test: Inhibition of STAT3 pathway in human A549 cells assessed as decrease in STAT3 phosphorylation level at 2.5 to 5 uM by Western blot analysis; format: cell-based; conditions: dose 2.5-5 µM
[32] = Developmental toxicity in wild type AB zebrafish assessed as effect on heart at 50 uM incubated for 72 hrs followed by LED light irradiation at 1.8 mW cm/2 relative to control; set-up: species or system Danio rerio; conditions: in vivo
A549 [33] = test: Induction of apoptosis in human A549 cells assessed as increase in nuclear shrinkage at 2.5 to 5 uM incubated for 30 mins with irradiation of LED light at 1.8 mW cm/2 by Hoechst 33342 staining based light microscopy analysis; format: functional, cell-based; conditions: dose 2.5-5 µM
[34] = Induction of type-1 ROS generation in tetrahydrofuran at 0.5 uM followed by LED white light irradiation at 1.8 mWcm/2 for 300 sec by DCFH staining based analysis; format: functional
A549 [35] = test: Phototoxicity against human A549 cells assessed as reduction in cell proliferation at 0.156 to 10 uM irradiated with LED light at 1.8 mWcm/2 for 2 hrs and measured after 24 hrs under normoxia condition by MTT assay; format: functional, cell-based; conditions: dose 0.156-10 µM, time 26.0 hrs
A549 [36] = test: Activation of MAPK pathway in human A549 cells assessed as increase in MAPK phosphorylation level at 2.5 to 5 uM by Western blot analysis; format: cell-based; conditions: filed as activator, dose 2.5-5 µM
MCF7 = test: Phototoxicity against human MCF7 cells assessed as reduction in cell proliferation at 0.156 to 10 uM irradiated with LED light at 1.8 mWcm/2 for 2 hrs and measured after 24 hrs under normoxia condition by MTT assay; format: functional, cell-based; conditions: dose 0.156-10 µM, time 26.0 hrs
[37] = Developmental toxicity in wild type AB zebrafish assessed as survival rate at 50 uM incubated for 72 hrs followed by LED light irradiation at 1.8 mW cm/2 relative to control; set-up: species or system Danio rerio; conditions: in vivo
A549 [38] = test: Activation of ERK1/2 pathway in human A549 cells assessed as effect on ERK protein expression at 2.5 to 5 uM by Western blot analysis; format: cell-based; conditions: filed as activator, dose 2.5-5 µM
A549 [39] = test: Induction of apoptosis in human A549 cells assessed as upregulation of cleaved PARP expression at 2.5 to 5 uM with irradiation of LED light at 1.8 mW cm/2 by Western blot analysis; format: functional, cell-based; conditions: dose 2.5-5 µM
[40] = Developmental toxicity in wild type AB zebrafish assessed as effect on morphological abnormalities at 1.57 to 50 uM incubated for 72 hrs followed by LED light irradiation at 1.8 mW cm/2; set-up: species or system Danio rerio; conditions: in vivo, dose 1.57-50 µM
A549 [41] = test: Induction of apoptosis in human A549 cells assessed as upregulation of cleaved Bax expression at 2.5 to 5 uM with irradiation of LED light at 1.8 mW cm/2 by Western blot analysis; format: functional, cell-based; conditions: dose 2.5-5 µM
A549 [42] = test: Induction of apoptosis in human A549 cells assessed as downregulation of caspase-3 expression at 2.5 to 5 uM with irradiation of LED light at 1.8 mW cm/2 by Western blot analysis; format: functional, cell-based; conditions: dose 2.5-5 µM
[43] = Induction of type-1 ROS generation in methanol assessed as generation of O2 at 0.5 uM followed by Xe lamp irradiation for 5 mins by DCFH staining based analysis; format: functional
[44] = Induction of type-1 ROS generation in methanol assessed as generation of OH at 0.5 uM followed by Xe lamp irradiation for 5 mins by DCFH staining based analysis; format: functional

Sequence of Signal transducer and activator of transcription 3 (Homo sapiens) (P40763 whole entry): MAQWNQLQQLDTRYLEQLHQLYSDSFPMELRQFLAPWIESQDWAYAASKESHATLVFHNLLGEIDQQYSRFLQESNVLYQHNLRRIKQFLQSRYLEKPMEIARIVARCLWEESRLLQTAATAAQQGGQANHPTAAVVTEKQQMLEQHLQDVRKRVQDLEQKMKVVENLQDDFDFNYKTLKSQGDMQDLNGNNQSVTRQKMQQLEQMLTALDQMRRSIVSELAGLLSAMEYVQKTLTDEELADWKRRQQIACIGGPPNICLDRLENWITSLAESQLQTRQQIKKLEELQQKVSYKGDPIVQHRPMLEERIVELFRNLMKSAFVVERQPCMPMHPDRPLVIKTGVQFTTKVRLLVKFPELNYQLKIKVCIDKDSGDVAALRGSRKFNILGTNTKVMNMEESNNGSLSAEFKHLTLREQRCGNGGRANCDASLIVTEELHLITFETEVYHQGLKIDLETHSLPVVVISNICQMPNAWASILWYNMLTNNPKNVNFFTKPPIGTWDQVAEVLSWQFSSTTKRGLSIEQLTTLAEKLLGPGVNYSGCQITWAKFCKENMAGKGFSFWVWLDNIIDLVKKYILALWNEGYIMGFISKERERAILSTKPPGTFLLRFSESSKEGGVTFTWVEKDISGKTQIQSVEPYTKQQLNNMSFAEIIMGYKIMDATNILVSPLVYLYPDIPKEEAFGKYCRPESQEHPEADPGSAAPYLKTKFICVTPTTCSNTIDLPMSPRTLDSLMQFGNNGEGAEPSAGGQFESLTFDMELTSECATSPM

What does the source list for `CCN(CC)c1ccc2cc(C(=O)/C=C/c3ccc4c(c3)CN3CN4Cc4cc(Br)ccc43)c(=O)oc2c1`?
Activity [1]: Non-toxic; Activity (A549 [2]): Active; Fluorescence quantum yield [3]: 0.12; fold change (FC) [4]: 25.6; inhibition (A549 [5]): Active; Activity [6]: Toxic; IC50 [7]: 460 nM; survival at 72 h, 50 µM [8]: 100%; Activity (A549 [9]): Active; inhibition (A549 [10]): Active; inhibition (A549 [11]): Active; Activity [12]: Non-toxic; Activity [13]: 100%; inhibition (A549 [14]): Active; Activity [15]: Active; Compound Showed Little Change In Protein Expression; Activity (A549 [16]): inactive; Activity (MDA-MB-231): Active; inhibition [17]: Active; Activity (Mitochondrial membrane [18]): Active; inhibition (A549 [19]): Active; Activity (A549 [20]): Active; inhibition (A549 [21]): Active; Activity (A549 [22]): Active; Activity (HepG2): Active; Activity (A549 [23]): Active; Activity [24]: Active; Activity [25]: 100%; Drug uptake [26]: Active; Activity (Mitochondrial membrane [27]): Active; Activity [28]: Active; Activity (A549 [29]): Active; Compound Showed Little Change In Protein Expression; Drug uptake [30]: Active; inhibition [31]: Active; Activity [32]: Non-toxic; Activity (A549 [33]): Active; Activity [34]: Active; Activity (A549 [35]): Active; Activity (A549 [36]): Active; Activity (MCF7): Active; survival at 72 h, 50 µM [37]: 100%; Activity (A549 [38]): Active; Compound Showed Little Change In Protein Expression; Activity (A549 [39]): Active; Activity [40]: Non-toxic; Activity (A549 [41]): Active; Activity (A549 [42]): Active

With `CN(C)c1ccc2cc(C(=O)/C=C/c3ccc4c(c3)CN3CN4Cc4cc(Br)ccc43)c(=O)oc2c1` as the molecule, how does the Fluorescence quantum yield [3] read?
The Fluorescence quantum yield was 0.16.

And the fold change (FC) [4]?
Its fold change (FC) is 25.5.

And the Activity [6]?
Its Activity is “Toxic”.

What about the Activity [43] of the same molecule?
The Activity was “Active”.

And the Activity [44]?
The Activity was “Active”.

And the Activity [34]?
The Activity was “Active”.
